Results from patent US11466012B2, “Tetrahydroisoquinoline compounds” (ALLINKY BIOPHARMA, priority 2018, dated 2022).

Legend:
[1] = system: NCI-H358 human lung cancer xenograft; experiment: Subcutaneous NCI-H358 human lung cancer xenograft model in NOD/SCID mice; assay type: in vivo; settings: for Mean tumor volume: PG-D22 (Day 22 after first dosing), Compound 18 10 mg/kg Bid x 22 day, cisplatin 3.5 mg/kg BIW x 3.5 week, vehicle 630 mm^3; for Mean tumor volume / Tumor growth inhibition (TGI) / Number of mice (of 6) whose body weight loss (BWL) reached 10%: i.p.; for Tumor growth inhibition (TGI) / Anti-tumor effect compared with vehicle group: PG-D22; for Tumor growth inhibition (TGI): TGI=100x(1-T/C), Compound 18 10 mg/kg Bid; for Tumor growth inhibition (TGI) / Number of mice (of 6) whose body weight loss (BWL) reached 10%: cisplatin 3.5 mg/kg BIW; for Anti-tumor effect compared with vehicle group: group-2 p=0.026, group-3 p=0.019; for Number of mice (of 6) whose body weight loss (BWL) reached 10%: tumor bearing mice, compound 18 10 mg/kg Bid; for Tolerability / safety in tumor bearing mice: 10 mg/kg b.i.d. i.p.
From the text: Evaluation of the Efficacy of compound 18 in the Treatment of Subcutaneous NCI-H358 Human Lung Cancer Xenograft Model in NOD/SCID Mice
The treatments were started when the mean tumor size reached 141 mm^3. The test article administration and the animal numbers in each study group are shown in the following experimental design table.
Tumor growth inhibition (TGI): TGI (%) is an indication of antitumor effectiveness, and expressed as: TGI (%)=100×(1−T/C). T and C were the mean tumor volume of the treated and control groups, respectively, on a given day.

[2] = system: A549 lung carcinoma cell line bearing KRas^G12S oncogenic mutation; experiment: Cell proliferation inhibition (MTS), A549; assay type: cell-based; settings: Homo sapiens
Method: (§1) • Cell line #1: A549. Lung carcinoma cell line bearing KRas^G12S oncogenic mutation • Cell line #2: H358. non-small cell lung cancer line bearing KRas^G12C oncogenic mutation • Cell line #3: PANC-1. epithelioid carcinoma of the pancreas cell line bearing KRas^G12D oncogenic mutation • Cell line #4: RPMI. myeloma cell line bearing KRas^G12A oncogenic mutation
(§2) Cell lines were cultured in DMEM or RPMI-1640 supplemented with FBS 10%. In order to assess the antiproliferative effect of compounds, cells were seeded at a density of 1.8×10^3, 6.2×10^3, 7.8×10^3, 21×10^3 and 2×10^3 cells/cm^2, respectively, in tissue culture microplates and were incubated in humidified atmosphere at 5% CO2. 24 h later, compounds dissolved in DMSO 100% were added for different final concentrations ranging between 0.1 and 50 μM for a final DMSO concentration of 0.5% and the plates were incubated for another 72 h. After incubation, proliferation was quantified using CellTiter 96® Aqueous Non-Radioactive Cell Proliferation Assay-MTS (Promega #G5421) following manufacturer instructions. Amount of 490 nm absorbance is directly proportional to the number of living cells. Absorbance was recorded with a BMG Fluostar Optima Microplate Reader and normalized to control with vehicle.

[3] = system: RPMI-8226 myeloma cell line bearing KRas^G12A oncogenic mutation; experiment: Cell proliferation inhibition (MTS), RPMI-8226; assay type: cell-based; settings: Homo sapiens
Method: as §1, §2

[4] = system: H358 non-small cell lung cancer line bearing KRas^G12C oncogenic mutation; experiment: Cell proliferation inhibition (MTS), H358; assay type: cell-based; settings: Homo sapiens, NCI-H358
Method: as §1, §2

[5] = system: PANC-1 epithelioid carcinoma of the pancreas cell line bearing KRas^G12D oncogenic mutation; experiment: Cell proliferation inhibition (MTS), PANC-1; assay type: cell-based; settings: Homo sapiens
Method: as §1, §2

[6] = system: NIH-H358 cell line; experiment: 3D CellTiter-Glo cell viability assay; assay type: cell-based; settings: 168 h, 7 days' compound treatment, 0.65% methylcellulose
Method: The protocol to perform 3D CellTiter-Glo™ cell viability assay is as follows:
Day −1: Cell Plating • Adjust cell concentrations to 1×10^5 cells/ml with respective medium. (Cell concentration is adjusted according to data base or density optimization assay). Mix 3.5 mL of cell suspension 6.5 mL of 1% methylcellulose. Mix and wait for bubbles to disperse before pipetting. This step yields 10 ml of cell suspension in 0.65% methylcellulose solution. Add 99.5 μL cell suspensions to 96-well plates according to plate map with final cell density. • Two duplicate plates will be set up. One is for day 0 reading (T0) and the other will be cultured in incubator for reading at the end point. • Incubate the plates overnight in humidified incubator at 37° C. with 5% CO2.
Day 0: T0 plate reading and compound treatment • Take T0 plate, add 0.5 μL culture medium to each well for T0 reading. • Add 100 μl CellTiter-Glo® Reagent to each well. • Mix contents for 2 minutes on an orbital shaker to facilitate cell lysis. • Allow the plate to incubate at room temperature for 10 minutes to stabilize luminescent signal. • Record luminescence using EnVision Multi Label Reader. • Dilute the test articles at the concentration indicated at Test Articles Dilution. Add 0.5 μL of each 200× compound working solutions according to plate inoculation map.
Day 7: Plate reading of 7 days' compound treatment • Add 100 μL CellTiter-Glo® Reagent to each well. • Mix contents for 2 minutes on an orbital shaker to facilitate cell lysis. • Allow the plate to incubate at room temperature for 10 minutes to stabilize luminescent signal. • Record luminescence using EnVision Multi Label Reader.

[7] = target: KRas (Homo sapiens, UniProt P01116); experiment: Equilibrium dissociation constant by surface plasmon resonance; assay type: binding; settings: SPRi, immobilised KRas, 4° C.
Method: Various concentrations of KRas dissolved in water were manually printed onto bare gold-coated (thickness 47 nm) PlexArray Nanocapture Sensor Chips (Plexera Bioscience, Seattle, Wash., US) at 40% humidity. Each concentration was printed in replicate, and each spot contained 0.2 μL of KRas solution. The chip was incubated in 80% humidity at 4° C. for overnight, and rinsed with 10×PBST for 10 min, 1×PBST for 10 min, and deionized water twice for 10 min. The chip was then blocked with 5% (w/v) non-fat milk in water overnight, and washed with 10×PBST for 10 min, 1×PBST for 10 min, and deionized water twice for 10 min before being dried under a stream of nitrogen prior to use. SPRi measurements
were performed with PlexAray HT (Plexera Bioscience, Seattle, Wash., US). Collimated light (660 nm) passes through the coupling prism, reflects off the SPR-active gold surface, and is received by the CCD camera. Buffers and samples were injected by a non-pulsatile piston pump into the 30 μL flowcell that was mounted on the coupling prim. […] The signal changes after binding and washing (in AU) are recorded as the assay value. Selected protein-grafted regions in the SPR images were analyzed, and the average reflectivity variations of the chosen areas were plotted as a function of time. Real-time binding signals were recorded and analyzed by Data Analysis Module (DAM, Plexera Bioscience, Seattle, Wash., US). […]

[8] = 72 h incubation, MTS, compounds 1-53, median from experimental results
[9] = compounds 54-63, based on estimations and/or preliminary experimental results

Sequence of KRas (P01116 1-188 isoform P01116-2): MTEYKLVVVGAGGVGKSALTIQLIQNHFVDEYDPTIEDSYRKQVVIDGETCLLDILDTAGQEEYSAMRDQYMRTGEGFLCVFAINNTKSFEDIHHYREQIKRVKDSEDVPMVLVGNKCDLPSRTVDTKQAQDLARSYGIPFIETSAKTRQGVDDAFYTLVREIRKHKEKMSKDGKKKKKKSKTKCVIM

Row | SMILES | IC50 [2, 8] | IC50 [3, 8] | IC50 [4, 8] | IC50 [5, 8] | IC50 [6] | IC50 [2, 9] | IC50 [3, 9] | IC50 [4, 9] | IC50 [5, 9] | also measured
1 | N.N.[Cl][Pt][Cl] [Cisplatin, reference compound] | – | – | – | – | – | – | – | – | – | Mean tumor volume [1]: 231 mm^3; Tumor growth inhibition (TGI) [1]: about 63%; Anti-tumor effect compared with vehicle group [1]: significant anti-tumor effects; Number of mice (of 6) whose body weight loss (BWL) reached 10% [1]: 4
2 | CCNC(=O)N1CCc2cc(OC)c(OCCc3cccc(O)c3)cc2C1c1ccc(C)cc1C (centres unmarked) [Compound 17] | 3520 nM | 1740 nM | 3100 nM | 1830 nM | 620 nM | – | – | – | – | –
3 | COc1cc2c(cc1OCCc1cccc(O)c1)C(c1ccc(C)cc1C)N(C(=O)NCc1cocn1)CC2 (centres unmarked) [Compound 18, 1-(2,4-dimethylphenyl)-7-(3-hydroxyphenethoxy)-6-methoxy-N-(oxazol-4-ylmethyl)-3,4-dihydroisoquinoline-2(1H)-carboxamide] | 1970 nM | 1210 nM | 1660 nM | 1590 nM | 370 nM | – | – | – | – | Tolerability / safety in tumor bearing mice [1]: tolerate; Tolerability / safety in tumor bearing mice ([1]; listed as compound 18): safe; Mean tumor volume [1]: 238 mm^3; Tumor growth inhibition (TGI) [1]: about 62%; Anti-tumor effect compared with vehicle group [1]: significant anti-tumor effects; Anti-tumor effect compared with vehicle group ([1]; listed as compound 18): significant anti-tumor activities; Number of mice (of 6) whose body weight loss (BWL) reached 10% [1]: one; Kd [7]: 8.8 nM; koff ([7]; read-out: Kd (dissociation rate constant)): 0.00103 s⁻¹
4 | Cc1ccc(C2c3cc(OCCc4cccc(F)c4)c(O)cc3CCN2C(=O)NCc2cocn2)c(C)c1 (centres unmarked) [Compound 26] | 2020 nM | 790 nM | 1010 nM | 1150 nM | 9350 nM | – | – | – | – | –
5 | Cc1ccc(C2c3cc(OCCc4cccnc4)c(C)cc3CCN2C(=O)NCc2cocn2)c(C)c1 (centres unmarked) [Compound 42] | 490 nM | 320 nM | 1210 nM | 620 nM | 10100 nM | – | – | – | – | –
6 | CCNC(=O)N1CCc2cc(OC)c(OCCc3cccnc3)cc2C1c1ccc(C)cc1C (centres unmarked) [Compound 46] | 600 nM | 500 nM | 700 nM | 700 nM | 842 nM | – | – | – | – | –
7 | CCNC(=O)N1CCc2cc(OC)c(OCCc3cccc(N)c3)cc2C1c1ccc(C)cc1C (centres unmarked) [Compound 50] | 800 nM | 800 nM | 800 nM | 500 nM | 373 nM | – | – | – | – | –
8 | CCNC(=O)N1CCc2cc(OC)c(OCCc3cnccn3)cc2C1c1ccc(C)cc1C (centres unmarked) [Compound 51] | 500 nM | 600 nM | 600 nM | 500 nM | 334 nM | – | – | – | – | –
9 | COc1cc2c(cc1OCCc1nccnc1C)C(c1ccc(C)cc1C)N(C(=O)NCc1cocn1)CC2 (centres unmarked) [Compound 59] | – | – | – | – | – | 600 nM | 500 nM | 700 nM | 7000 nM | –
10 | COc1cc2c(cc1OCCc1cnc(C)cn1)C(c1ccc(C)cc1C)N(C(=O)NCc1cocn1)CC2 (centres unmarked) [Compound 60] | – | – | – | – | – | 600 nM | 500 nM | 700 nM | 700 nM | –
11 | COc1cc2c(cc1OCCc1cncc(C)n1)C(c1ccc(C)cc1C)N(C(=O)NCc1cocn1)CC2 (centres unmarked) [Compound 61] | – | – | – | – | – | 600 nM | 500 nM | 700 nM | 700 nM | –
12 | COc1cc2c(cc1OCCc1nccnc1OC)C(c1ccc(C)cc1C)N(C(=O)NCc1cocn1)CC2 (centres unmarked) [Compound 62] | – | – | – | – | – | 600 nM | 500 nM | 700 nM | 700 nM | –

More lines, main results first:

Row | IC50 [2, 8] | IC50 [3, 8] | IC50 [4, 8] | IC50 [5, 8] | IC50 [6] | IC50 [2, 9] | IC50 [3, 9] | IC50 [4, 9] | IC50 [5, 9] | SMILES | also measured
13 | 550 nM | 620 nM | 590 nM | 490 nM | 390 nM | – | – | – | – | COc1cc2c(cc1OCCc1cccnc1)C(c1ccc(C)cc1C)N(C(=O)NCc1cocn1)CC2 (centres unmarked) [Compound 23] | –
14 | – | – | – | – | – | 600 nM | 600 nM | 600 nM | 500 nM | COc1ccc(CCOc2cc3c(cc2OC)CCN(C(=O)NCc2cocn2)C3c2ccc(C)cc2C)cn1 (centres unmarked) [Compound 55] | –
15 | – | – | – | – | – | 600 nM | 600 nM | 600 nM | 500 nM | COc1cc2c(cc1OCCc1cccnc1OC)C(c1ccc(C)cc1C)N(C(=O)NCc1cocn1)CC2 (centres unmarked) [Compound 56] | –
16 | – | – | – | – | – | 600 nM | 600 nM | 600 nM | 500 nM | COc1cc2c(cc1OCCc1ccc(C)nc1)C(c1ccc(C)cc1C)N(C(=O)NCc1cocn1)CC2 (centres unmarked) [Compound 57] | –
17 | – | – | – | – | – | 600 nM | 600 nM | 600 nM | 500 nM | COc1cc2c(cc1OCCc1cccnc1C)C(c1ccc(C)cc1C)N(C(=O)NCc1cocn1)CC2 (centres unmarked) [Compound 58] | –
18 | – | – | – | – | – | 600 nM | 500 nM | 700 nM | 700 nM | COc1cnc(CCOc2cc3c(cc2OC)CCN(C(=O)NCc2cocn2)C3c2ccc(C)cc2C)cn1 (centres unmarked) [Compound 63] | –
